# Results: PMC6941952, “A homogeneous bioluminescent immunoassay to probe cellular signaling pathway regulation” (Communications Biology, 2020)
# Where “and” joins values, the source holds several entries; their conditions need not be identical. Identical values can stand only once.
# Tested on: STAT3 Phospho-Tyr705
# Assay: NanoBiT pSTAT3 cell-based immunoassay in A431 cells
# Design: species or system human
# Conditions: for Raw data P-STAT3 / Subtract reagent background P-STAT3 / P-STAT3 (% compared to no inhibitor) / Average P-STAT3 (% compared to no inhibitor) / P-STAT3 (% compared to no inhibitor) Average: IL-6 10 ng/ml; for P-STAT3 (% compared to no inhibitor): replicate
# Method: Prior to NanoBiT Cell-Based Immunoassay, 50,000 cells were seeded in 160 µl of complete growth media per well of a 96-well plate and incubated overnight. […] If necessary, the cell culture media were replaced with serum-free media after the cells were stably adherent on the plate and incubated overnight. To treat cells with activators or inhibitors, medium was changed to 30 µl of medium containing inhibitors. If activation of a specific pathway is needed, the cells were stimulated with 10 µl of medium containing activators. To lyse the cells, 10 µl of lysis buffer containing 0.1% digitonin diluted in 1X immunoassay buffer with protease and phosphatase inhibitors was added and the plates were mixed vigorously for 20 min. Then, 50 µl of an antibody mix containing two primary antibodies against the target protein and NanoBiT detecting antibodies (0.3 µl each per well), diluted in 1X immunoassay buffer was added to the lysates. The plates were incubated at 23 °C for 90 min, followed by the addition of 25 µl of Nano-Glo® reagent consisting of Nano-Glo® Luciferase Assay Substrate mixed with 1X immunoassay buffer. Luminescence was measured using a plate-reading luminometer.
# Single dose or dose response inhibitor treatments were performed prior to activation of the pathways as follows. For IκBα, the cells were treated in 30 µl medium with IKK16 or MG132 for 60 min before the addition of 10 µl of DMEM containing appropriate concentration of TNFα. To measure phosphorylation of AKT or STAT3, the corresponding NanoBiT immunoassays were developed with MCF-7 or A431 cells, respectively, according the same scheme used to develop the IκBα assay using the primary antibodies for AKT and STAT3 described in the reagents section. […] Treatment with LY294002 was performed in 30 µl medium and cells were incubated for 60 min before the addition of 1 µM Insulin. To measure STAT3 phosphorylation, A431 cells were incubated overnight in DMEM medium without serum. […] After addition of the stimulators, the cells were incubated for additional times as follows. IκBα phosphorylation and degradation analyses required both time courses and single time points as described in figures. […] The NanoBiT immunoassay protocol was followed as described above.
# All 96-well assay plates were read using a GloMax® 96 Microplate Luminometer from Promega. The instrument was set to 0.5 s integration time. In order to obtain net change of signal, the reagent background values (signal from the well containing all reagent except primary antibodies) were subtracted from the sample values. To plot and analyze the data, Microsoft Excel and GraphPad Prism® Software were used. IC50 values were determined by using a nonlinear regression fit to a sigmoidal dose response (variable slope).
# [1] = A431 cells, pretreated 1 h, IL-6 10 ng per ml 30 min
# [2] = Actemra 7.62939e-5 ug/ml, A431, Fig 6e
# [3] = Actemra 0.000305176 ug/ml, A431, Fig 6e
# [4] = Actemra 0.0012207 ug/ml, A431, Fig 6e
# [5] = Actemra 0.00488281 ug/ml, A431, Fig 6e
# [6] = Actemra 0.0195312 ug/ml, A431, Fig 6e
# [7] = Actemra 0.078125 ug/ml, A431, Fig 6e
# [8] = Actemra 0.3125 ug/ml, A431, Fig 6e
compound,measurement,setting,value
"Tocilizumab: humanized monoclonal antibody against the IL-6 receptor, approved immunosuppressive drug","IC50, inhibition of Phospho-STAT3",[1],0.16 µg/mL
same,"STAT3 phosphorylation / JAK2-STAT3 pathway activation, dose response",[1],inhibited
same,Raw data P-STAT3,[2],317500 and 271600 and 267300
same,Subtract reagent background P-STAT3,[2],173175 and 168875 and 219075
same,P-STAT3 (% compared to no inhibitor),[2],117.6%
same,Raw data P-STAT3,[3],341900 and 251000 and 260600
same,Subtract reagent background P-STAT3,[3],155645 and 165245 and 246545
same,P-STAT3 (% compared to no inhibitor),[3],91.7% and 120.7%
same,Raw data P-STAT3,[4],299200 and 250300 and 276700
same,Subtract reagent background P-STAT3,[4],153990 and 180390 and 202890
same,Average P-STAT3 (% compared to no inhibitor),[5],74.6%
same,Raw data P-STAT3,[5],245000 and 216200 and 217700
same,Subtract reagent background P-STAT3,[5],121185 and 122685 and 149985
same,P-STAT3 (% compared to no inhibitor),[5],82.3% and 68.1% and 73.4%
same,Average P-STAT3 (% compared to no inhibitor),[6],41.8%
same,Raw data P-STAT3,[6],170000 and 159800 and 165700
same,Subtract reagent background P-STAT3,[6],67955 and 73855 and 78155
same,P-STAT3 (% compared to no inhibitor),[6],46.2% and 41.0% and 38.2%
same,Average P-STAT3 (% compared to no inhibitor),[7],19.4%
same,Raw data P-STAT3,[7],138700 and 129600 and 119000
same,Subtract reagent background P-STAT3,[7],34580 and 23980 and 43680
same,P-STAT3 (% compared to no inhibitor),[7],23.5% and 13.3% and 21.4%
same,Average P-STAT3 (% compared to no inhibitor),[8],9.3%
same,Raw data P-STAT3,[8],116800 and 110300 and 113700
same,Subtract reagent background P-STAT3,[8],13270 and 16670 and 19770
same,P-STAT3 (% compared to no inhibitor),[8],9.0% and 9.3% and 9.7%
same,Average P-STAT3 (% compared to no inhibitor),"Actemra 5 ug/ml, A431, Fig 6e",7.9%
same,Raw data P-STAT3,"Actemra 5 ug/ml, A431, Fig 6e",110700 and 107600 and 97720
same,P-STAT3 (% compared to no inhibitor),"Actemra 5 ug/ml, A431, Fig 6e",10.8% and 3.4% and 9.3%
same,Average P-STAT3 (% compared to no inhibitor),"Actemra 20 ug/ml, A431, Fig 6e",7.7%
same,Raw data P-STAT3,"Actemra 20 ug/ml, A431, Fig 6e",106200 and 97590
same,P-STAT3 (% compared to no inhibitor),"Actemra 20 ug/ml, A431, Fig 6e",11.0% and 4.2% and 7.9%
same,Average P-STAT3 (% compared to no inhibitor),"Actemra […], A431, Fig 6e",7.7%
N#CC[C@H](C1CCCC1)n1cc(-c2ncnc3[nH]ccc23)cn1 [Ruxolitinib],IL-6-induced increase in STAT3 phosphorylation,"A431 cells, 1 µM 1 h, IL-6 10 ng per ml 30 min",suppressed
same,P-STAT3 (% compared to no inhibitor) Average,inhibitor 0.0190735 nM,95.1%
same,P-STAT3 (% compared to no inhibitor) Average,inhibitor 0.038147 nM,97.5%
same,P-STAT3 (% compared to no inhibitor) Average,inhibitor 0.0762939 nM,97.0%
same,P-STAT3 (% compared to no inhibitor) Average,inhibitor 0.152588 nM,107.8%
same,P-STAT3 (% compared to no inhibitor) Average,inhibitor 0.305176 nM,102.4%
same,P-STAT3 (% compared to no inhibitor) Average,inhibitor 0.610352 nM,97.6%
same,P-STAT3 (% compared to no inhibitor) Average,inhibitor 1.2207 nM,97.9%
same,P-STAT3 (% compared to no inhibitor) Average,inhibitor 2.44141 nM,96.4%
same,P-STAT3 (% compared to no inhibitor) Average,inhibitor 4.88281 nM,89.5%
same,P-STAT3 (% compared to no inhibitor) Average,inhibitor 9.76562 nM,75.7%
same,P-STAT3 (% compared to no inhibitor) Average,inhibitor 19.5312 nM,80.7%
same,P-STAT3 (% compared to no inhibitor) Average,inhibitor 39.0625 nM,62.0%
same,P-STAT3 (% compared to no inhibitor) Average,inhibitor 78.125 nM,39.8%
same,P-STAT3 (% compared to no inhibitor) Average,inhibitor 156.25 nM,26.0%
same,P-STAT3 (% compared to no inhibitor) Average,inhibitor 312.5 nM,16.9%
same,P-STAT3 (% compared to no inhibitor) Average,inhibitor 625 nM,16.7%
same,P-STAT3 (% compared to no inhibitor) Average,inhibitor 2500 nM,13.8%
same,P-STAT3 (% compared to no inhibitor) Average,inhibitor 5000 nM,15.3%
same,P-STAT3 (% compared to no inhibitor) Average,inhibitor 10000 nM,10.3%
same,P-STAT3 (% compared to no inhibitor) Average,inhibitor […],12.9%
same,P-STAT3 (% compared to no inhibitor),inhibitor 0.0190735 nM,96.2% and 96.8% and 92.2%
same,P-STAT3 (% compared to no inhibitor),inhibitor 0.038147 nM,95.4% and 106.7% and 90.5%
same,P-STAT3 (% compared to no inhibitor),inhibitor 0.0762939 nM,96.2% and 100.5% and 94.3%
same,P-STAT3 (% compared to no inhibitor),inhibitor 0.152588 nM,95.8% and 119.8% and 107.8%
same,P-STAT3 (% compared to no inhibitor),inhibitor 0.305176 nM,98.2% and 103.8% and 105.3%
same,P-STAT3 (% compared to no inhibitor),inhibitor 0.610352 nM,90.4% and 95.8% and 106.7%
same,P-STAT3 (% compared to no inhibitor),inhibitor 1.2207 nM,97.3% and 105.4% and 90.9%
same,P-STAT3 (% compared to no inhibitor),inhibitor 2.44141 nM,104.8% and 99.5% and 84.9%
same,P-STAT3 (% compared to no inhibitor),inhibitor 4.88281 nM,81.2% and 88.5% and 98.7%
same,P-STAT3 (% compared to no inhibitor),inhibitor 9.76562 nM,52.6% and 91.9% and 82.5%
same,P-STAT3 (% compared to no inhibitor),inhibitor 19.5312 nM,89.5% and 78.3% and 74.3%
same,P-STAT3 (% compared to no inhibitor),inhibitor 39.0625 nM,59.3% and 71.3% and 55.5%
same,P-STAT3 (% compared to no inhibitor),inhibitor 78.125 nM,39.9% and 42.8% and 36.6%
same,P-STAT3 (% compared to no inhibitor),inhibitor 156.25 nM,30.4% and 24.5% and 23.1%
same,P-STAT3 (% compared to no inhibitor),inhibitor 312.5 nM,16.4% and 18.5% and 15.8%
same,P-STAT3 (% compared to no inhibitor),inhibitor 625 nM,19.9% and 15.7% and 14.5%
same,P-STAT3 (% compared to no inhibitor),inhibitor 2500 nM,12.6% and 13.9% and 14.8%
same,P-STAT3 (% compared to no inhibitor),inhibitor 5000 nM,13.4% and 17.3% and 15.2%
same,P-STAT3 (% compared to no inhibitor),inhibitor 10000 nM,6.2% and 9.4% and 15.3%
